Laboratory results published in patent EP3693362B1, “PARASITIC PLANT GERMINATION REGULATOR” (National University Corporation Tokai National Higher …, priority 2017, dated 2019).
pIC50: −log10 of the molar value.

How the values were obtained:
Assay in all cases: Affinity for strigolactone receptor, YLG probe competition (fluorescence)
Type in all cases: binding
Conditions in all cases: competition with YLG, test range 0.01 to 10 µM, pH 7.0, read-out: IC50 values of test compounds
HTL4 = molecular target: T1, HTL4 (Striga hermonthica, UniProt A0A0M4AMQ0)
T1 sequence (A0A0M4AMQ0 1-271): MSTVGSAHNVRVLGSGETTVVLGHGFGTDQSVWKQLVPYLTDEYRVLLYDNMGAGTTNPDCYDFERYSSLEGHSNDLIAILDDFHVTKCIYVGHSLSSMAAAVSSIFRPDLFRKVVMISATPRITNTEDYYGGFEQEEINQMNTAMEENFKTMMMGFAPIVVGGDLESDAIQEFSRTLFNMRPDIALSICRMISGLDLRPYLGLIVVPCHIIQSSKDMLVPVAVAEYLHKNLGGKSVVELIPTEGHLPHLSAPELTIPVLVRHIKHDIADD
Protocol: (§1) PTL 1 reports that the affinity of a test compound for the strigolactone receptor can be evaluated by reacting strigolactone with a probe for evaluation of affinity for a strigolactone receptor (e.g., YLG) in the presence of the test compound, and measuring the fluorescence emitted from the decomposition product of YLG. Therefore, the compounds synthesized in Example 1 were used as the test compounds, and the affinity for the strigolactone receptor was evaluated by a similar method to the above. The details are as follows.
(§2) An Arabidopsis thaliana strigolactone receptor (AtD14) was produced in accordance with a usual method. More specifically, cDNA of the receptor was obtained by RT-PCR, and expression and purification were carried out in E. coli. Additionally, Striga strigolactone receptors were produced by the method disclosed in PTL 1 (ShHTL1: amino acid SEQ ID NO: 1, ShHTL2: amino acid SEQ ID NO: 2, ShHTL3: amino acid SEQ ID NO: 3, ShHTL4: amino acid SEQ ID NO: 4, ShHTL5: amino acid SEQ ID NO: 5, ShHTLS: amino acid SEQ ID NO: 6, ShHTL7: amino acid SEQ ID NO: 7, ShHTLS: amino acid SEQ ID NO: 8, ShHTL9: amino acid SEQ ID NO: 9, ShHTL10: amino acid SEQ ID NO: 10, and ShHTL11: amino acid SEQ ID NO: 11.)
(§3) One hundred microliters of a reaction solution containing each of the obtained strigolactone receptors ([…]), YLG (final concentration: […]), and each of the test compounds (final concentration: 0.01 to 10 µM) or the control compound (5-deoxystrigol, final concentration: 0.01 to 10 µM) as a competitive compound (100 mM HEPES, 150 mM NaCl, pH: 7.0, 0.1% DMSO) was prepared and reacted in a 96 black-well plate (Greiner). Sixty after the initiation of the reaction, fluorescence was detected at an excitation wavelength of 480 nm and a detection wavelength of 520 nm using a fluorescence detector (SpectraMax i3, manufactured by Molecular Devices), and the fluorescence intensity was measured. Based on the measurement results of fluorescence intensity, a Lineweaver-Burk plot was created to calculate the Km values, and the IC50 values of each of the test compounds and the control compound, which are competitive compounds.
(§4) In Table 7, HTL1 to HTL11 refer to strigolactone receptors (SEQ ID NOs: 1 to 11), and AtD14 refer to the Arabidopsis thaliana strigolactone receptor.

HTL9 = molecular target: T2, HTL9 (Striga hermonthica, UniProt A0A0M4AGW0)
T2 sequence (A0A0M4AGW0 1-271): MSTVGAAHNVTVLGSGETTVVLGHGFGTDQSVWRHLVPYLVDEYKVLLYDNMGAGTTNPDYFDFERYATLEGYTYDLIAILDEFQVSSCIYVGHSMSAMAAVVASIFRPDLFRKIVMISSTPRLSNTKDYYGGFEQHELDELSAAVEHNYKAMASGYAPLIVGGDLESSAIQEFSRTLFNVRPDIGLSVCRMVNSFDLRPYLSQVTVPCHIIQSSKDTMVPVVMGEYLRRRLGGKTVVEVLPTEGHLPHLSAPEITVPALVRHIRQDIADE
Protocol: as §1, §2, §3, §4

HTL10 = molecular target: T3, HTL10 (Striga hermonthica, UniProt A0A0M4AH20)
T3 sequence (A0A0M4AH20 1-268): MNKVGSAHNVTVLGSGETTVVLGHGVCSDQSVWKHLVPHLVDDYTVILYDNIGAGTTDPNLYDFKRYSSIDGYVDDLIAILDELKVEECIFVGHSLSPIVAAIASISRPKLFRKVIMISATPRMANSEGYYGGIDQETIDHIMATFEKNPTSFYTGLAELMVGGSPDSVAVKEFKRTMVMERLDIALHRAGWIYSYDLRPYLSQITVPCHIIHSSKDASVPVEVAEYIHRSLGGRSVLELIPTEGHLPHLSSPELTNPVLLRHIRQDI
Protocol: as §1, §2, §3, §4

HTL5 = molecular target: T4, HTL5 (Striga hermonthica, UniProt A0A0M5I297)
T4 sequence (A0A0M5I297 1-271): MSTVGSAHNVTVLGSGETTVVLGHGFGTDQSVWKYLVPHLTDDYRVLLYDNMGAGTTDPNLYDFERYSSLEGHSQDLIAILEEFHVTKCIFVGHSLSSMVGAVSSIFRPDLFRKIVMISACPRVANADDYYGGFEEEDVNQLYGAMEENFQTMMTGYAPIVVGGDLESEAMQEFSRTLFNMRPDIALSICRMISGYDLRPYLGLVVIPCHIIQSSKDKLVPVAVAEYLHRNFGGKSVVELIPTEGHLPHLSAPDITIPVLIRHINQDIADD
Protocol: as §1, §2, §3, §4

HTL6 = molecular target: T5, HTL6 (Striga hermonthica, UniProt A0A0M4AUV4)
T5 sequence (A0A0M4AUV4 1-271): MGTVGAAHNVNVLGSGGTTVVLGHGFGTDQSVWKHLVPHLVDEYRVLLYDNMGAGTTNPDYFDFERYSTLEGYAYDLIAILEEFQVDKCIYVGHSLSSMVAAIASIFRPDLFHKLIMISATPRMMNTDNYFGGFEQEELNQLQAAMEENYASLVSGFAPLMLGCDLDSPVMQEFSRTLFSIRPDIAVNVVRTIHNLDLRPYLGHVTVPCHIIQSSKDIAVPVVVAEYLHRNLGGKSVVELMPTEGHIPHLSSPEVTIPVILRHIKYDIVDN
Protocol: as §1, §2, §3, §4

HTL8 = molecular target: T6, HTL8 (Striga hermonthica, UniProt A0A0M4APJ4)
T6 sequence (A0A0M4APJ4 1-272): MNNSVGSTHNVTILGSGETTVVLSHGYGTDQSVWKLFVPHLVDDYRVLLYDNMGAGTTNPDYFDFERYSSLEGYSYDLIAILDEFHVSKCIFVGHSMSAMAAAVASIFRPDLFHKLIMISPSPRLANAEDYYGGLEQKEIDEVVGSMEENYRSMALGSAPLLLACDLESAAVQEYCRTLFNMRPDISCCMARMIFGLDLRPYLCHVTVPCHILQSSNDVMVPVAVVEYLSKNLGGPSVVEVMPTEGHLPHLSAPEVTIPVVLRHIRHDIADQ
Protocol: as §1, §2, §3, §4

SMILES: CC1=CC(OC=C2C(=O)OC3C4=C(CCCC4(C)C)CC23)OC1=O (stereo not drawn) [5-Ddeoxystriqol, 5-deoxystrigol, reference compound]
- pIC50 (HTL4): 6.52
- pIC50 (HTL9): 5.92
- pIC50 (HTL10): 6.21
- pIC50 (HTL5): 5.44
- pIC50 (HTL6): 6.72
- pIC50 (HTL8): 6.44

SMILES: CC1=CC(OC(=O)NCc2ccccc2)OC1=O (stereo not drawn) [Comparison Compound 1, reference compound]
- pIC50 (HTL4): < 5.00
- pIC50 (HTL9): < 5.00
- pIC50 (HTL10): < 5.00
- pIC50 (HTL5): < 5.00
- pIC50 (HTL6): < 5.00
- pIC50 (HTL8): < 5.00

SMILES: CCCCOc1ccc(S(=O)(=O)N2CCN(C(=O)OC3C=C(C)C(=O)O3)CC2)cc1 (stereo not drawn) [Compound 1]
- pIC50 (HTL4): < 5.00
- pIC50 (HTL9): < 5.00
- pIC50 (HTL10): < 5.00
- pIC50 (HTL5): < 5.00
- pIC50 (HTL6): < 5.00
- pIC50 (HTL8): 5.96

SMILES: CCCCOc1ccc(S(=O)(=O)N2CCN(C(=O)OC3C=CC(=O)O3)CC2)cc1 (stereo not drawn) [Compound 13]
- pIC50 (HTL4): < 5.00
- pIC50 (HTL9): < 5.00
- pIC50 (HTL10): < 5.00
- pIC50 (HTL5): < 5.00
- pIC50 (HTL6): < 5.00
- pIC50 (HTL8): < 5.00
